Tests used:
opioidergic receptors μ = molecular target: T1, opioidergic receptors μ (Mus musculus, UniProt P42866); assay: Radioreceptorial binding, receptors μ ([3H]-DAMGO displacement, brain membranes); parameters: species or system mice; details: 1 nM [3H]-DAMGO, 25° C.
T1 construct: from tissue; host or cells: CD1 mouse total brain (excluding the cerebellum) membranes

opioidergic receptors δ = molecular target: T2, opioidergic receptors δ (Mus musculus, UniProt P32300); assay: Radioreceptorial binding, receptors δ ([3H]-DPDPE displacement, brain membranes); parameters: species or system mice; details: 1 nM [3H]-DPDPE, 25° C.
T2 construct: from tissue; host or cells: CD1 mouse total brain (excluding the cerebellum) membranes

opioidergic receptors k = molecular target: T3, opioidergic receptors k (Mus musculus, UniProt P33534); assay: Radioreceptorial binding, receptors k (3H-U 69.593, brain membranes); parameters: species or system mice; details: 3H-U 69.593, 25° C.
T3 construct: the complete brain (excluding the cerebellum) was quickly dissected and kept in ice; from tissue; host or cells: CD1 mouse complete brain (excluding the cerebellum) homogenate/membranes
Source text: The affinity of the compounds synthesized in the preceding examples towards the opioidergic receptors μ, δ, k has been evaluated in vitro by radioreceptorial binding studies by using the method reported hereinunder.
The experimentation has been carried out according to the guide lines of the European Community for the animal experimentation (EEC n. 86/609), by using laboratory animals (male mices CD1 Charles River Italy, Calco, LC, Italy) lodged twenty in a cage, under standard stabulation conditions (temperature 22±2° C., relative humidity 60%, artificial light with a light/dark cycle of 12 hours). The food and water were at disposal ad libitum.
Receptors k: CD1 male mice weighing 20-25 g were used. The animals were sacrificed by cervical dislocation and the complete brain (excluding the cerebellum) was quickly dissected and kept in ice. The tissue was homogeneized in 40 volumes (w/v) of Tris-HCl buffer (50 mM, pH 7.4) by an Ultra-Turrax, then centrifuged for 20 minutes at 48,000×g in a centrifuge kept at 4° C. The resulting […] was suspended again in the same buffer and incubated at 37° C. for 30 minutes in a bath kept under oscillation. At the end of the incubation the suspension was centrifuged 48,000×g for 15 minutes and the pellets suspended again in 10 volumes of the Tris-HCl buffer. The binding experiment was carried out in a volume of 1 ml at the temperature of 25° C. with about 800-1000 μg of proteins for sample. The incubation was carried out for 60 minutes in the,presence of different concentrations of the ligand ^3H-U 69.593 (41.7 Ci/mmole). The non specific binding was determined in the presence of U69593 (10 μM). The incubation was stopped by quick filtering by means of a filtration instrument (Brandell®, Gaithersburg, Md., USA) by using GF/C filters (Whatman®).
The radioactivity was determined by a scintillator in liquid phase (Tricarb® 2100, Packard, Meridien, Ill., USA), by using three ml of scintillating fluid (Ultima Cold MV, Packard, Meridien, Ill., USA).
The protein determination was carried out by the Bradford method (1976) by using the protocol and the reactants supplied by Bio-Rad (Milano, Italy).
The affinity of the compounds towards the receptors μ, δ, κ has been expressed in Ki terms.

T3 sequence (P33534 whole entry): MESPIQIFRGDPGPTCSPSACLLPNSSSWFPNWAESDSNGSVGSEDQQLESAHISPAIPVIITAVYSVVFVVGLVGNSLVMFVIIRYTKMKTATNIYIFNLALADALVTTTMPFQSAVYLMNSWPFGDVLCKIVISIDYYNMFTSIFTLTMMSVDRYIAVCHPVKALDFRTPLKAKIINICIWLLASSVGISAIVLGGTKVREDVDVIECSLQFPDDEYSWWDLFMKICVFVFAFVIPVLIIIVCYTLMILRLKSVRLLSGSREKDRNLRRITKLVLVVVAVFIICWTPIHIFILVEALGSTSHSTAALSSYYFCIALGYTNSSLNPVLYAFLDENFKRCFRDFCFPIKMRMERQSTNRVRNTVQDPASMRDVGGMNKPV
T2 sequence (P32300 whole entry): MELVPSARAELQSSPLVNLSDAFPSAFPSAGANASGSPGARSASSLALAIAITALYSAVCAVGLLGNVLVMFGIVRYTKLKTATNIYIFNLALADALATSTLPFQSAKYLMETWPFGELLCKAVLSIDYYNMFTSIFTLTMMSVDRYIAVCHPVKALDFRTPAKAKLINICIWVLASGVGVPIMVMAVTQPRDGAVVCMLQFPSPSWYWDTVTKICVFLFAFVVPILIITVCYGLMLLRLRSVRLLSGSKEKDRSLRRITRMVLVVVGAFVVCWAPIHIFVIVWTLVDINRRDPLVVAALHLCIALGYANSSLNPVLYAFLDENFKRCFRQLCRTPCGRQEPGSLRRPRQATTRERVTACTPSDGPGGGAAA
T1 sequence (P42866 whole entry): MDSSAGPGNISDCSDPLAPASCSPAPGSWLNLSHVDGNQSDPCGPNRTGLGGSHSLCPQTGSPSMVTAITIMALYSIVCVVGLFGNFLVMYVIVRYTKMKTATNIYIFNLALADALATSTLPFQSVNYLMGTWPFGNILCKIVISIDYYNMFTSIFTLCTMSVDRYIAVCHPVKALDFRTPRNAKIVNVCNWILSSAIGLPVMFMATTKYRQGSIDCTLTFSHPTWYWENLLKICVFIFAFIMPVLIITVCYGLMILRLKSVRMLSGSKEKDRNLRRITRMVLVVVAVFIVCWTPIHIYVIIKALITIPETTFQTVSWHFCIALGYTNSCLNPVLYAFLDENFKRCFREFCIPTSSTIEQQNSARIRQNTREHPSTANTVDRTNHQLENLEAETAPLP

| SMILES | melting point [°C] | Ki (opioidergic receptors μ) [nM] | Ki (opioidergic receptors δ) [nM] | Ki (opioidergic receptors k) [nM] |
| --- | --- | --- | --- | --- |
| CCC(=O)N1C2CCC1CN(C/C=C(\C)c1ccccc1)CC2 (stereo not drawn) [I-Ba] | 228 to 230 | 8.3 ± 1.2 | 933 ± 33 | 900 ± 100 |
| CCC(=O)N1CCC2CCC(C1)N2C/C=C(\C)c1ccccc1 (stereo not drawn) [I-Aa] | 230 to 232 | 5.7 ± 1 | 425 ± 25 | 55 ± 25 |
| CCC(=O)N1CCC2CCCC(C1)N2C/C=C(\C)c1ccccc1 (stereo not drawn) [I-Ca] | 106 to 108 | 17 ± 1.3 | 1670 ± 166 | 410 ± 10 |
| CCC(=O)N1C2CCC1CN(C/C=C(\C)c1ccc(Cl)c(Cl)c1)CC2 (stereo not drawn) [I-Bb] | 186 to 188 | 4.1 ± 0.35 | 850 ± 58 | 393 ± 23 |
| CCC(=O)N1CCC2CCC(C1)N2C/C=C(\C)c1ccc(Cl)c(Cl)c1 (stereo not drawn) [I-Ab] | 188 to 189 | 7 ± 1.5 | 867 ± 44 | 100 ± 5 |
| CCC(=O)N1CCC2CCCC(C1)N2C/C=C(\C)c1ccc(Cl)c(Cl)c1 (stereo not drawn) [I-Cb] | 184 to 185 | 4.25 ± 0.3 | 1120 ± 216 | 425 ± 38 |
| CCC(=O)N1C2CCCC1CN(C/C=C(\C)c1ccccc1)CC2 (stereo not drawn) [I-Da] | 144 to 146 | 40 ± 2.8 | 3870 ± 125 | 1470 ± 317 |
| CCC(=O)N1CCC2CCCC(C1)N2CC=C(c1ccccc1)c1ccccc1 (stereo not drawn) [I-Cc] | 137 to 139 | 3.16 ± 0.6 | 187 ± 29.7 | 40 ± 0.1 |
| CCC(=O)N1CCC2CCC(C1)N2CC=C(c1ccccc1)c1ccccc1 (stereo not drawn) [I-Ad] | 176 to 177 | 10.7 ± 0.3 | 142 ± 25 | 103 ± 7 |
| CCC(=O)N1C2CCCC1CN(C/C=C(\C)c1ccc(Cl)c(Cl)c1)CC2 (stereo not drawn) [I-Db] | 175 to 176 | 17.5 ± 1.4 | 3250 ± 166 | 1170 ± 120 |
| CCC(=O)N1C2CCCC1CN(CC=C(c1ccccc1)c1ccccc1)CC2 (stereo not drawn) [I-Dc] | 169 to 170 | 23.3 ± 1.6 | 1690 ± 312 | 1930 ± 233 |
| CCC(=O)N1C2CCC1CN(CC=C(c1ccccc1)c1ccccc1)CC2 (stereo not drawn) [I-Bd] | 184 to 186 | 20.7 ± 2.33 | 333 ± 5 | 1130 ± 186 |
